Experimental data reported in patent publication US11744798B2, “Injectable pharmaceutical formulation” (UPM-Kymmene Corporation, priority 2019, dated 2023).
≈ marks a conversion by molar mass, not a printed value.

Legend:
[1] = Cumulative release study of CPF from NFC depots with solvents; format: physicochemical
Protocol: Cumulative release study aiming to increase the release rate of CPF and receive close to 100% cumulative result for NFC-formulations within 7 days. Following detailed tasks were performed: • Two solvents, DMSO (Dimethyl sulfoxide) and NMP (N-methyl-2-pyrrolidone), in addition to H2O were used to enhance release of CPF • 6% anionic and 1.5% native NFC were studied • Study included formulation and short in vitro dissolution studies for NFC-API depots to follow cumulative release
Cumulative release study aiming to increase cumulative result for NFC-formulations was performed with CPF, as it had clearly lower cumulative release results in previous experiments compared to MLX. 6% anionic and 1.5% native NFC were studied. Two solvents, DMSO (dimethyl sulfoxide) and NMP (N-methyl-2-pyrrolidone), in addition to H2O were used to enhance the release of CPF. The study included formulation and short in vitro dissolution studies for NFC-API depots to follow cumulative release (FIG. 7). Depots contained 50% of solvent and 50% of NFC.
However, the increase was most apparent within the first hours and first day of study, which after the release reverted to the level of pure NFC formulations.

[2] = water at 25° C.; cited from earlier work

Row | effect on release of CPF ([1]; 50% DMSO in NFC depot) | effect on release of CPF ([1]; 50% NMP in NFC depot) | Compound | solubility in water [2]
1 | increased the release | increased the release | CC(C(=O)O)c1ccc2c(c1)[nH]c1ccc(Cl)cc12 (stereo not drawn) [Carprofen] | 
2 |  |  | Cc1cnc(NC(=O)C2=C(O)c3ccccc3S(=O)(=O)N2C)s1 [Meloxicam] | 7.15 µg/mL (≈ 20.3 µM)
